Key:
[1] = biological target: T1, intracellular kinase domain of human IGF-1R (GST fusion protein) (Homo sapiens, UniProt P08069); test: In vitro IGF-1R kinase assay (HTRF); format: biochemical; settings: ATP 20 μM, IGFRK 0.25 nM
T1 construct: IGFRK and IRK enzyme used for the assay was intracellular kinase domain of human IGF-1R; GST; made in house

[2] = test system: A673 (Ewing's Sarcoma) cancer cell line; test: Anti-proliferative assay (MTS / CCK-8); format: cell-based; settings: for anti-proliferative activity as compared to compound 999: Ewing's Sarcoma cell line; for IC50: Homo sapiens, A673 (Ewing's Sarcoma), 72 hours, 100 ng/mL IGF, read-out: Anti-proliferation IC50
Protocol: Anti-proliferative potential of compounds was tested using various cell lines (details provided in Table 2) by MTS (Promega, Cat # G1111), a tetrazolium compound ((3-(4,5-dimethylthiazol-2-yl)-5-(3-carboxymethoxyphenyl)-2-(4-sulphophenyl)-2Htetrazolium, inner salt; MTS) and Cell Counting kit-8 (CCK-8 a Dojindo's highly watersoluble tetrazolium salt of WST-8 [2-(2-methoxy-4-nitrophenyl)-3-(4-nitrophenyl)-5-(2,4-disulfophenyl)-2H-tetrazolium, monosodium salt]). MTS is a colorimetric assay for determining the number of viable cells in proliferation, cytotoxicity or chemosensitivity assays. This is used with an electron coupling reagent PMS (Phenazine methosulfate). MTS is bioreduced by cells into a formazan that is soluble in tissue culture medium. The absorbance of the formazan at 490 nm can be measured directly from 96 well assay plates without additional processing. Dehydrogenase enzymes found in metabolically active cells accomplish the conversion of MTS into the aqueous soluble formazan. The quantity of formazan product is directly proportional to the number of living cells in culture. In CCK-8, WST-8 is reduced by dehydrogenases in cells to give a yellow colored product formazan, which is measured at 450 nm.
For experimental purposes, cells were seeded at a density of 3000-5000 cells per well in 180 μL/well volume in transparent 96 well tissue culture plate (NUNC, USA) and incubated overnight at 37° C., 5% CO2. Next day before adding compound the medium was replaced and 180 μL, of fresh medium added with the 100 ng/mL IGF without FCS followed by addition of 20 μL of 10× compound (10 mM stock made in DMSO and then further dilutions were made in medium, final DMSO concentration should not exceed 0.5%) and incubated for 72 hours in humidified 5% CO2 incubator at 37±1° C. After incubation medium was replaced with 200 μL of medium containing 20 μL MTS reagent per well. Plates were incubated for 3-4 hours and absorbance was measured at 490 nm on Spectrophotometer (SpectraMax, Molecular Devices). Percentage cytotoxicity and IC50 was calculated using SoftMax software. CCK-8 was used for suspension cell lines. Cell seeding and compound addition was done on same day. Following the incubation, 10 μL of CCK-8 solution was added in each well. After 4 hour incubation, the absorbance was determined at 450 nm using Spectrophotometer (SpectraMax, Molecular Devices). In every experiment, each condition was run in triplicate wells.

[3] = Oral absorption in Swiss mice; format: in vivo; settings: 10 mg/kg p.o.; for Cmax / half-life / AUC(0-inf): male, mouse, plasma, po; for AUC(0-inf): read-out: AUC0-infinity
Protocol: Oral absorption of different compounds was ascertained in Swiss mice. The procedure followed was as detailed below:
Species: Swiss mice, overnight fasted state
Sex and weight: Male, in the weight range of 25-30 g
Number of animals: 18 animals divided into six groups (n=3) and bled as follows:
Formulation: Compound suspended in 0.5% carboxymethylcellulose or 0.25% methylcellulose
Blood (250 μL) is collected from the retro-orbital sinus at designated time points from each mouse using heparinized bleeding capillaries into micro-centrifuge tubes containing 5 μL EDTA (200 mM) as anticoagulant. Plasma is separated by centrifugation at 10000 rpm for 5 min and samples stored at −70° C. until bioanalysis.
On the day of analysis, plasma samples are thawed at room temperature. An aliquot (100 μL) of each plasma sample is spiked individually with 10 μL of internal standard. The samples are then vortexed for 10 seconds followed by addition of 1 mL of extraction solvent and vortexed for 5 minutes. The samples are then centrifuged at 10000 rpm for 5 minutes at 4° C. Supernatants (800 μL) are removed and transferred to glass tubes and evaporated to dryness under nitrogen. The dried residues are reconstituted using 100 μL of 90:10% v/v acetonitrile:MilliQ water. The reconstituted samples are vortexed, centrifuged and injected into LC-MS/MS for analysis. The calibration curve is prepared in the range of 0.5 to 5000 ng/mL in mouse plasma for quantitation.

CYP2D6 = biological target: T2, CYP2D6 (Homo sapiens, UniProt P10635); test: CYP inhibition fluorescence assay (rhCYP450, Vivid Invitrogen kit); format: in vitro ADME; settings: for inhibition at 10 uM: human, read-out: % inhibition @ 10 uM 2D6
T2 construct: purchased Invitrogen (Vivid screening kits)
T2 sequence (P10635 whole entry): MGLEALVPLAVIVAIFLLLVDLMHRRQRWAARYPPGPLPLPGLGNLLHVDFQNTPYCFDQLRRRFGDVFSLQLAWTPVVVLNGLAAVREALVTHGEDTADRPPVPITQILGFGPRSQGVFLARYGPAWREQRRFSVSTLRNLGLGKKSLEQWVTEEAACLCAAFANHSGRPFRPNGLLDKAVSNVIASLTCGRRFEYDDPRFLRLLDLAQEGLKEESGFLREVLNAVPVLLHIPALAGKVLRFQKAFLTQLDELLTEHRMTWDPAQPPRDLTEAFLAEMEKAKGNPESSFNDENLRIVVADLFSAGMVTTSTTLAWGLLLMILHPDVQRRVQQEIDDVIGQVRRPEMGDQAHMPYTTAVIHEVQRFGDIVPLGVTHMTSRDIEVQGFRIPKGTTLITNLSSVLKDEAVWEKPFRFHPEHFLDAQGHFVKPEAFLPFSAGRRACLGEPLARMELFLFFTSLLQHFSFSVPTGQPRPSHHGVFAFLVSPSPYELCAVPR
Protocol: (§1) The % inhibition @ 10 uM data was generated from an rhCYP450/fluorescence assay according to the Vivid Invitrogen screening kits. The compounds were screened against 5 CYP450 (1A2, 2C9, 2C19, 2D6, and 3A4) isoforms. CYP3A4 constitutes 28% of the human hepatic CYP and is responsible for metabolism of 50% of all drugs. In this class of drugs, CYP3A4 is the most important CYP and thus it is highly desirable not to inhibit CYP3A4. The lower the percentage inhibition, the lower the CYP450 inhibitory liability of that specific compound.

CYP3A4 = biological target: T3, CYP3A4 (Homo sapiens, UniProt P08684); test: as above; format: in vitro ADME; settings: for hepatic CYP3A4 inhibition as compared to compound 999: 10 uM; for inhibition at 10 uM: human, read-out: % inhibition @ 10 uM 3A4
T3 construct: purchased Invitrogen (Vivid screening kits)
T3 sequence (P08684 whole entry): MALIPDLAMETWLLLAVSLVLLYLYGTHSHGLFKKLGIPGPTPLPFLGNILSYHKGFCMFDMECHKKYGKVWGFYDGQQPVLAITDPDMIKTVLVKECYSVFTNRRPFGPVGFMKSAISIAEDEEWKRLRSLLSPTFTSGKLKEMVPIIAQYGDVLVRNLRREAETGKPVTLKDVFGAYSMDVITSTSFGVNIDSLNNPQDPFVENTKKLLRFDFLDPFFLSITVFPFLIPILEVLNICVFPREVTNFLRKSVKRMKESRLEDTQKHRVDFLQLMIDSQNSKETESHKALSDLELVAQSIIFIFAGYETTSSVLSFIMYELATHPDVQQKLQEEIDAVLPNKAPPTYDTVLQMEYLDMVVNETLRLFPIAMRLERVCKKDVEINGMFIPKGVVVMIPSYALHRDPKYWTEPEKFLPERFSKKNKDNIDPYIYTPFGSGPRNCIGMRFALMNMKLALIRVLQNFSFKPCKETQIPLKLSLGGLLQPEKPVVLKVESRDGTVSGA
Protocol: as §1

T1 sequence (P08069 999-1274 limits assumed): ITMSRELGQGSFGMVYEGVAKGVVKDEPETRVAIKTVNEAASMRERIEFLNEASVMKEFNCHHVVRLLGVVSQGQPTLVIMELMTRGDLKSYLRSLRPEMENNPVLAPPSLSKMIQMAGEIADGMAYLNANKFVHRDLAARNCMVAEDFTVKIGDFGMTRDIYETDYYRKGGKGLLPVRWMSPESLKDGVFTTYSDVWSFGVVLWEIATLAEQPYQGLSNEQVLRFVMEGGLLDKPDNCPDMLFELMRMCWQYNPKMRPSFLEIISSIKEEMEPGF

Row | Structure (SMILES) | IC50 [1] [nM] | anti-proliferative activity as compared to compound 999 [2] | IC50 [2] [nM] | AUC as compared to compound 999 [3] | Cmax as compared to compound 999 [3] | Cmax [3] [nM] | half-life [3] [h] | AUC(0-inf) [3] [ng·h/mL] | inhibition at 10 uM (CYP2D6) [%] | hepatic CYP3A4 inhibition as compared to compound 999 (CYP3A4) | inhibition at 10 uM (CYP3A4) [%] | hepatic CYP2D6 inhibition as compared to compound 999 (CYP2D6; 10 uM)
1 | NC(=O)c1[nH]c2ccc(Cl)cc2c1S(=O)(=O)N1CCO[C@H](COc2cccc(-c3ccccc3)c2)C1 [Compound 1, (S)-3-((2-(([1,1′-biphenyl]-3-yloxy)methyl)morpholino)sulfonyl)-5-chloro-1H-indole-2-carboxamide] | 33 | higher | 1.8 | higher | higher | 8560 | 5.3 | 10900 |  |  |  | 
2 | COc1ccc(-c2cccc(OC[C@@H]3CN(S(=O)(=O)c4c(C(N)=O)[nH]c5ccc(Cl)cc45)CCO3)c2)cn1 [Compound 7, (S)-5-chloro-3-((2-((3-(6-methoxypyridin-3-yl)phenoxy)methyl)morpholino)sulfonyl)-1H-indole-2-carboxamide] | 15.1 | higher | 0.6 | higher | higher | 2200 | 0.9 | 1940 |  |  |  | 
3 | CCOc1ccc(-c2cccc(OC[C@@H]3CN(S(=O)(=O)c4c(C(N)=O)[nH]c5ccc(Cl)cc45)CCO3)c2)cn1 [Compound 17, (S)-5-chloro-3-((2-((3-(6-ethoxypyridin-3-yl)phenoxy)methyl)morpholino)sulfonyl)-1H-indole-2-carboxamide] | 10 |  |  |  |  |  |  |  | 13 | reduced | 2 | 
4 | Cc1ccc(OC[C@@H]2CN(S(=O)(=O)c3c(C(N)=O)[nH]c4ccc(Cl)cc34)CCO2)cc1-c1ccccc1 [Compound 20, (S)-5-chloro-3-((2-(((6-methyl-[1,1′-biphenyl]-3-yl)oxy)methyl)morpholino)sulfonyl)-1H-indole-2-carboxamide] | 140 |  |  | higher | higher | 1980 | 2.1 | 4710 | 25 | reduced | 2 | 
5 | NC(=O)c1[nH]c2ccc(Cl)cc2c1S(=O)(=O)N1CCO[C@H](COc2ccc(-c3ccncc3)cc2)C1 [Compound 32, (S)-5-chloro-3-((2-((4-(pyridin-4-yl)phenoxy)methyl)morpholino)sulfonyl)-1H-indole-2-carboxamide] | 3.5 |  |  | higher | higher | 2780 | 2.8 | 3190 |  |  |  | 
6 | NC(=O)c1[nH]c2ccc(Cl)cc2c1S(=O)(=O)N1CCO[C@H](COc2ccc(-c3ncccn3)cc2)C1 [Compound 53, (S)-5-chloro-3-((2-((4-(pyrimidin-2-yl)phenoxy)methyl)morpholino)sulfonyl)-1H-indole-2-carboxamide] | 6.4 |  |  |  |  |  |  |  | 0 |  | 37 | reduced
7 | NC(=O)c1[nH]c2ccc(Cl)cc2c1S(=O)(=O)N1CCO[C@H](COc2ccc(-c3ccnc(Cl)c3)cc2)C1 [Compound 84, (S)-5-chloro-3-((2-((4-(2-chloropyridin-4-yl)phenoxy)methyl)morpholino)sulfonyl)-1H-indole-2-carboxamide] | 18.5 |  |  | higher | higher | 1240 | 1.3 | 2200 |  |  |  | 
8 | Cc1cc(OC[C@@H]2CN(S(=O)(=O)c3c(C(N)=O)[nH]c4ccc(Cl)cc34)CCO2)ccc1-c1ccnc(Cl)c1 [Compound 87, (S)-5-chloro-3-((2-((4-(2-chloropyridin-4-yl)-3-methylphenoxy)methyl)morpholino)sulfonyl)-1H-indole-2-carboxamide] | 9.3 |  |  |  |  |  |  |  | 16 | reduced | 24 | 
